Where a name gives a salt, the structure may show the parent alone.
Columns and labels:
Assay type in all cases: biochemical
AKT1 = target: T1, AKT1 (Homo sapiens, UniProt P31749); assay: AKT Kinase Assay (IMAP fluorescent polarisation) vs AKT1; conditions: activated AKT1, FAM Crosstide substrate
T1 construct: purchased SignalChem
Procedure, shortened: (§1)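 IC50 values came from non-linear regression of % inhibition relative to vehicle, measured by IMAP fluorescence polarisation (485/528 nm) after a 1 h room-temperature reaction of FAM-Crosstide and ATP. Each activated isoform was first exposed to compound for 45 min across fourteen half-log doses.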

AKT3 = target: T2, AKT3 (Homo sapiens, UniProt Q9Y243); assay: AKT Kinase Assay (IMAP fluorescent polarisation) vs AKT3; conditions: activated AKT3, FAM Crosstide substrate
T2 construct: purchased SignalChem
T2 sequence (Q9Y243 whole entry): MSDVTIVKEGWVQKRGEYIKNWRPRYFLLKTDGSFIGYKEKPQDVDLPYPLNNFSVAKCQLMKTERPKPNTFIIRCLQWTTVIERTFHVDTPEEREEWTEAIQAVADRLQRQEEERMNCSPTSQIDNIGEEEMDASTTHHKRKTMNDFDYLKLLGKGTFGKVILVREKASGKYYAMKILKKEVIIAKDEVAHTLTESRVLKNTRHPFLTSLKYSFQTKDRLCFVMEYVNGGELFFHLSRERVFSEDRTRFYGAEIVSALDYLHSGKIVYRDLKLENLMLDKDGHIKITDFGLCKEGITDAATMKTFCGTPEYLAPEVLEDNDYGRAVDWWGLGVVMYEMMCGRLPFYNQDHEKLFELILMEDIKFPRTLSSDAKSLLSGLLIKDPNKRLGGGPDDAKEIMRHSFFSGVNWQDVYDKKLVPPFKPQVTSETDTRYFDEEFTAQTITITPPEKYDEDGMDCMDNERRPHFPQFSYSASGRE
Procedure, shortened: as §1

AKT2 = target: T3, AKT2 (Homo sapiens, UniProt P31751); assay: AKT Kinase Assay (IMAP fluorescent polarisation) vs AKT2; conditions: activated AKT2, FAM Crosstide substrate
T3 construct: purchased SignalChem
T3 sequence (P31751 whole entry): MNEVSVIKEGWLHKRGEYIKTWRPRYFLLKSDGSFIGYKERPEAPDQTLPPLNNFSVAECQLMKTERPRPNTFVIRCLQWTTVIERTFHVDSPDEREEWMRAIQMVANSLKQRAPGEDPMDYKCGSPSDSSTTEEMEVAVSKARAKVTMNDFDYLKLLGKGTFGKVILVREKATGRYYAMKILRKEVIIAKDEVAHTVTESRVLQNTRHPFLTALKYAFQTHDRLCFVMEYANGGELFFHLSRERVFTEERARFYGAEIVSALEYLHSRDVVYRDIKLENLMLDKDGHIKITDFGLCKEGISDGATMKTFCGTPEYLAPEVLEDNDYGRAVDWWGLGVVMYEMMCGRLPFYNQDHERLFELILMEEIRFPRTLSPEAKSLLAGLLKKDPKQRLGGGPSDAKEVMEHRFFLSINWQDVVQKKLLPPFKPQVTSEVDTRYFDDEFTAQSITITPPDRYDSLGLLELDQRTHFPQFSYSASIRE
Procedure, shortened: as §1

T1 sequence (P31749 whole entry): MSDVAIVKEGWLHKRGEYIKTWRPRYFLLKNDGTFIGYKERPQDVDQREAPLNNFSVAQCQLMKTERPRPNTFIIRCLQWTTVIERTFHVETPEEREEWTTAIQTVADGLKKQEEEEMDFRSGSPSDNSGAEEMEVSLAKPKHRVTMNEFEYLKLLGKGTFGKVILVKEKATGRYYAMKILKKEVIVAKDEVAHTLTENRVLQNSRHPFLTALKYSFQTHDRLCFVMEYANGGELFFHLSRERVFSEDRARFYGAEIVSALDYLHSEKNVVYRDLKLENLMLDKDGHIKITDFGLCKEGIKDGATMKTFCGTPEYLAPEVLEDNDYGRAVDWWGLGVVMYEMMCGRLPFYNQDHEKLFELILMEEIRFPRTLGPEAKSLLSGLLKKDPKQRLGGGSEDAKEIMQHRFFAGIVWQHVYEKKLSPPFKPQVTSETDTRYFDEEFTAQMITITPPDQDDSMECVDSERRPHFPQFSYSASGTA

IC50 (AKT1) [µM] | IC50 (AKT3) [µM] | IC50 (AKT2) [µM] | SMILES
≤ 1 | 1 to 10 | ≤ 1 | NC1(c2ccc(-c3c(-c4ccccc4)oc4c(ccc5cnn(CCO)c54)c3=O)cc2)CCC1 [Example 85, 7-[4-(1-Amino-cyclobutyl)-phenyl]-1-(2-hydroxy-ethyl)-8-phenyl-1H-9-oxa-1,2-diaza-cyclopenta[a]naphthalen-6-one hydrochloride]
> 10 | > 10 | 1 to 10 | COc1cc2c(=O)c(-c3ccc(C4(N)CCC4)cc3)c(-c3ccccc3)oc2cc1C [Example 6, 3-[4-(1-Amino-cyclobutyl)-phenyl]-6-methoxy-7-methyl-2-phenyl-chromen-4-one]
≤ 1 | ≤ 1 | ≤ 1 | NC1(c2ccc(-c3c(-c4ccccc4)oc4c(-c5c[nH]nn5)cccc4c3=O)cc2)CCC1 [Example 106, 3-[4-(1-Amino-cyclobutyl)-phenyl]-2-phenyl-8-(1H-[1,2,3]triazol-4-yl)-chromen-4-one]
≤ 1 | 1 to 10 | ≤ 1 | Cn1cc2ccc3c(=O)c(-c4ccc(C5(N)CCC5)cc4)c(-c4ccccc4)oc3c2n1 [Example 59, 7-[4-(1-Amino-cyclobutyl)-phenyl]-2-methyl-8-phenyl-2H-9-oxa-1,2-diaza-cyclopenta[a]naphthalen-6-one]
≤ 1 | > 10 | > 10 | NC1(c2ccc(-c3c(-c4ccccc4)oc4c(-c5ccc(C6(N)CCC6)cc5)nccc4c3=O)cc2)CCC1 [Example 113, 3,8-bis(4-(1-aminocyclobutyl)phenyl)-2-phenyl-4H-pyrano[2,3-c]pyridin-4-one]
1 to 10 | > 10 | 1 to 10 | COc1ccc2oc(-c3ccccc3)c(-c3ccc(C4(N)CCC4)cc3)c(=O)c2c1 [Example 5, 3-[4-(1-Amino-cyclobutyl)-phenyl]-6-methoxy-2-phenyl-chromen-4-one]
≤ 1 | ≤ 1 | ≤ 1 | Cn1cnc2c3oc(-c4ccccc4)c(-c4ccc(C5(N)CCC5)cc4)c(=O)c3cc(Cl)c21 [Example 62, 7-[4-(1-Amino-cyclobutyl)-phenyl]-4-chloro-3-methyl-8-phenyl-3H-chromeno[7,8-d]imidazol-6-one hydrochloride]
≤ 1 | > 10 | > 10 | Cn1ncc2ccc3c(=O)c(-c4ccc(C5(N)CCC5)nc4)c(-c4ccccc4)oc3c21 [Example 71, 7-[6-(1-Amino-cyclobutyl)-pyridin-3-yl]-1-methyl-8-phenyl-1H-9-oxa-1,2-diaza-cyclopenta[a]naphthalen-6-one hydrochloride]
≤ 1 | 1 to 10 | 1 to 10 | COc1ccccc1-c1nccc2c(=O)c(-c3ccc(C4(N)CCC4)cc3)c(-c3ccccc3)oc12 [Example 118, 3-(4-(1-aminocyclobutyl)phenyl)-8-(2-methoxyphenyl)-2-phenyl-4H-pyrano[2,3-c]pyridin-4-one]
1 to 10 | > 10 | 1 to 10 | NC1(c2ccc(-c3c(-c4ccccc4)oc4ncccc4c3=O)cc2)CCC1 [Example 34, 3-[4-(1-Amino-cyclobutyl)-phenyl]-2-phenyl-pyrano[2,3-b]pyridin-4-one]
≤ 1 | 1 to 10 | 1 to 10 | Cn1nc(Cl)c2ccc3c(=O)c(-c4ccc(C5(N)CCC5)cc4)c(-c4ccccc4)oc3c21 [Example 100, 7-[4-(1-Amino-cyclobutyl)-phenyl]-3-chloro-1-methyl-8-phenyl-1H-9-oxa-1,2-diaza-cyclopenta[a]naphthalen-6-one hydrochloride]
≤ 1 | > 10 | 1 to 10 | NC1(c2ccc(-c3c(-c4ccccc4)oc4c(ccn5c(=O)[nH]nc45)c3=O)cc2)COC1 [Example 68, 7-[4-(3-Amino-oxetan-3-yl)-phenyl]-8-phenyl-2H-9-oxa-1,2,3a-triaza-cyclopenta[a]naphthalene-3,6-dione]
